The values below are quoted from earlier work in US12109298B2, “Improving the fastness to washing of pigment-containing dyes by using an oxidative pretreatment agent” (Henkel AG & Co. KGaA, priority 2020, dated 2024).

Read-outs that look alike come from different tables or passages of the source.

The conditions of series [1]: 25° C.
The conditions of series [2]: 5% solution in water.

For the molecule `CCN(Cc1cccc(S(=O)(=O)[O-])c1)c1ccc(C(=C2C=CC(=[N+](CC)Cc3cccc(S(=O)(=O)[O-])c3)C=C2)c2ccccc2S(=O)(=O)[O-])cc1.[Na+].[Na+]` [Acid Blue 9], the solubility in water result in series [1] is given as “more than 20 wt. %”.

Consider `Nc1cc(S(=O)(=O)[O-])cc2cc(S(=O)(=O)[O-])c(N=Nc3ccccc3)c(O)c12.[Na+].[Na+]` [Acid Red 33, diantrium salt of 5-amino-4-hydroxy-3-(phenylazo)-naphthalene-2,7-disulphonate], for which the solubility in water in series [1] was 2500 µg/mL.

As for `O=C([O-])c1c(Cl)c(Cl)c(Cl)c(Cl)c1-c1c2c(Br)cc(=O)c(Br)c-2oc2c(Br)c(O)cc(Br)c12.O=C([O-])c1c(Cl)c(Cl)c(Cl)c(Cl)c1-c1c2c(Br)cc(=O)c(Br)c-2oc2c(Br)c(O)cc(Br)c12.[Na+].[Na+]` [Acid Red 92, disodium salt of 3,4,5,6-tetrachloro-2-(1,4,5,8-tetrabromo-6-hydroxy-3-oxoxanthen-9-yl)benzoic acid], the solubility in water result in series [1] is listed as “greater than 10 g/L”.

For `O=P([O-])(O)O.[K+]` [Potassium dihydrogen phosphate], the pH value in series [2] was 4.4.

For the molecule `O=C([O-])C1=NN(c2ccc(S(=O)(=O)[O-])cc2)C(=O)C1N=Nc1ccc(S(=O)(=O)[O-])cc1.[Na+].[Na+].[Na+]` (stereo not drawn) [Acid Yellow 23, trisodium salt of 4,5-dihydro-5-oxo-1-(4-sulfophenyl)-4-((4-sulfophenyl)azo)-1H-pyrazole-3-carboxylic acid], in series [1] (in words), the solubility in water result is reported as “readily soluble in water”.

Turning to `O=S(=O)([O-])c1ccc(N=Nc2c(O)ccc3ccccc23)cc1.[Na+]` [Acid Orange 7, sodium salt of 4-[(2-hydroxy-1-naphthyl)azo]benzene sulfonate], the solubility in water entry in series [1] is listed as “more than 7 g/L”.
